{
  "source": "patent US7008545B2",
  "about": "“Synergistic biocidal mixtures” (Hercules Incorporated, priority 2002, dated 2006)",
  "key": {"[1]": {"tested_on": "artificial bacterial consortium", "assay": "Dose protocol, bacterial growth inhibition (O.D. 650 nm) in synthetic white water, concurrent fed strategy", "type": "cell-based", "details": "for ppm BIT / ppm BNPD / ppm DBDCB / ppm DIDAC / ppm DCOI / ppm Glut / ppm DGH / ppm Dithiol / ppm MBT / ppm DBNPA: alone or with AmBr; for ppm Sulfone: concentration of Sulfone at 50% inhibition", "protocol": "A measured amount of ammonium bromide activated with sodium hypochlorite and a measured amount of a non-oxidizing biocide were added to a suspension of bacteria. The effectiveness of the combination of the biocides is determined by measuring growth or lack thereof after an appropriate incubation time.\n(§1) The efficacy of the active materials and blends was determined using a dose protocol. The actives were evaluated in synthetic white water with pH values of 5.5 and 8.0. The materials were tested against an artificial bacterial consortium containing approximately equal numbers of six bacterial strains. Although the test strains are representative of organisms present in paper mill systems, the effect is not limited to these bacteria. Two of the strains were Klebsiella pneumonia (ATCC 13883) and Pseudomonas aeruginosa (ATCC 15442). The other four strains were isolated from papermill systems and have been identified as Curtobacterium flaccumfaciens, Burkholderia cepacia, Bacillus maroccanus, and Pseudomonas glathei. Each strain was inoculated at 37° C. overnight, then suspended in sterile saline. Equal volumes of each strain were then combined to prepare the consortium. The bacterial consortium was distributed into the wells of a microtiter plate in the presence and absence of various concentrations of the active materials. The microtiter plates were incubated at 37° C. Optical density (O.D.) readings at 650 nm were taken initially (t0) and after time 4 hours (t4) of incubation.\n(§2) The raw data was converted to “bacterial growth inhibition precentages” according to the following formula: % Inhibition=[(a−b)÷a]*100 where: • a=(O.D. of control at tn)−(O.D. of control at t0) • b=(O.D. of treatment at tn)−(O.D. of treatment at t0)\n(§3) The inhibition values can be plotted versus dosage for each active and the particular blend. […] In the examples (tables) below, the I50 values are expressed as parts per million (ppm) of active material.\n(§4) The synergism index (SI) was calculate by the equations described by F. C. Kull, P. C. Eisman, H. D. Sylwestrowicz, and R. L. Mayer (1961), Applied Microbiology 9, 538–541. The values are based on the amount needed to achieve a specified end point. The end point selected for these studies was 50% inhibition of bacterial growth. Synergy Index (SI)=(QA÷Qa)+(QB÷Qb) where: • QA=quantity of compound A in mixture, producing the end point • Qa=quantity of compound A, acting alone, producing the end point • QB=quantitiy of compound B in mixture, producing the end point • Qb=quantity of compound B, acting alone, producing the end point\n(§5) If SI is less than 1, synergism exists; if SI is greater than 1, antagonism exists; if SI is equal to 1, an additive effect exists."}, "[2]": {"tested_on": "artificial bacterial consortium", "assay": "Dose protocol, bacterial growth inhibition (O.D. 650 nm) in synthetic white water, sequential fed strategy, one hour delay between the additions", "type": "cell-based", "details": "for ppm Sulfone: concentration of Sulfone at 50% inhibition; for ppm MBT: concentration of MBT at 50% inhibition; for ppm DBNPA: alone or with AmBr", "protocol": "A measured amount of ammonium bromide activated with sodium hypochlorite was added to a suspension of bacteria and the cell suspension incubated for a selected time after which a measured amount of a selected non-oxidizing biocide was then added to the suspension. The effectiveness of the combination of biocides was determined by measuring growth or lack thereof after an additional appropriate incubation time.\nA measured amount of a selected non-oxidizing biocide was added to a suspension of bacteria and the cell suspension was incubated for a selected time after which a measured amount of ammonium bromide activated with sodium hypochlorite was then added to the suspension. The effectiveness of the combination of biocides was determined by measuring growth or lack thereof after an additional appropriate incubation time.\nas §1, §2, §3, §4, §5"}, "[3]": {"details": "pH 5.5, amount giving 50% inhibition"}, "[4]": {"details": "pH 8.0, amount giving 50% inhibition"}, "[5]": {"details": "Sulfone & AmBr, at 50% inhibition, pH 5.5"}, "[6]": {"details": "Sulfone & AmBr, at 50% inhibition, pH 8.0"}, "[7]": {"details": "pH 5.5, alone or with AmBr at the stated ratio"}, "[8]": {"details": "pH 8.0, alone or with AmBr at the stated ratio"}, "[9]": {"details": "DBNPA & AmBr, pH 5.5, end point 50% inhibition"}, "[10]": {"details": "DBNPA & AmBr, pH 8.0, end point 50% inhibition"}},
  "data": [
    {"smiles": "O=c1[nH]sc2ccccc12", "note": "[BIT, 1,2-Benzisothiazolin-3-one]", "values": [
      {"measurement": "Synergy Index", "setting": "[1]; BIT & AmBr, pH 5.5, end point 50% inhibition", "result": 1.00},
      {"measurement": "Synergy Index", "setting": "[1]; BIT & AmBr, pH 8.0, end point 50% inhibition", "result": 1.00},
      {"measurement": "ppm BIT", "setting": "[1]; [3]", "result": 1.62, "unit": "ppm"},
      {"measurement": "ppm BIT", "setting": "[1]; [4]", "result": 3.59, "unit": "ppm"}
    ]},
    {"smiles": "O=[N+]([O-])C(Br)(CO)CO", "note": "[BNPD, 2-Bromo-2-nitropropane-1,3-diol]", "values": [
      {"measurement": "Synergy Index", "setting": "[1]; BNPD & AmBr, pH 5.5, end point 50% inhibition", "result": 1.00},
      {"measurement": "Synergy Index", "setting": "[1]; BNPD & AmBr, pH 8.0, end point 50% inhibition", "result": 1.00},
      {"measurement": "ppm BNPD", "setting": "[1]; [3]", "result": 1.16, "unit": "ppm"},
      {"measurement": "ppm BNPD", "setting": "[1]; [4]", "result": 1.34, "unit": "ppm"}
    ]},
    {"smiles": "N#CCCC(Br)(C#N)CBr", "note": "(centres unmarked) [DBDCB, 1,2-Dibromo-2,4-dicyanobutane]", "values": [
      {"measurement": "Synergy Index", "setting": "[1]; DBDCB & AmBr, pH 5.5, end point 50% inhibition", "result": 1.00},
      {"measurement": "Synergy Index", "setting": "[1]; DBDCB & AmBr, pH 8.0, end point 50% inhibition", "result": 1.00},
      {"measurement": "ppm DBDCB", "setting": "[1]; [3]", "result": 2.70, "unit": "ppm"},
      {"measurement": "ppm DBDCB", "setting": "[1]; [4]", "result": 1.85, "unit": "ppm"}
    ]},
    {"smiles": "CCCCCCCCCC[N+](C)(C)CCCCCCCCCC.[Cl-]", "note": "[DIDAC, Didecyl dimethyl ammonium chloride]", "values": [
      {"measurement": "Synergy Index", "setting": "[1]; DIDAC & AmBr, pH 5.5, end point 50% inhibition", "result": 1.00},
      {"measurement": "Synergy Index", "setting": "[1]; DIDAC & AmBr, pH 8.0, end point 50% inhibition", "result": 1.00},
      {"measurement": "ppm DIDAC", "setting": "[1]; [3]", "result": 1.82, "unit": "ppm"},
      {"measurement": "ppm DIDAC", "setting": "[1]; [4]", "result": 1.62, "unit": "ppm"}
    ]},
    {"smiles": "CCCCCCCCn1sc(Cl)c(Cl)c1=O", "note": "[DCOI, 4,5-Dichloro-2-n-octyl-3(2H)-isothiazolinone]", "values": [
      {"measurement": "Synergy Index", "setting": "[1]; DCOI & AmBr, pH 5.5, end point 50% inhibition", "result": 1.00},
      {"measurement": "Synergy Index", "setting": "[1]; DCOI & AmBr, pH 8.0, end point 50% inhibition", "result": 1.00},
      {"measurement": "ppm DCOI", "setting": "[1]; [3]", "result": 0.39, "unit": "ppm"},
      {"measurement": "ppm DCOI", "setting": "[1]; [4]", "result": 1.49, "unit": "ppm"}
    ]},
    {"smiles": "O=CCCCC=O", "note": "[Glut, Glutaraldehyde]", "values": [
      {"measurement": "Synergy Index", "setting": "[1]; Glut & AmBr, pH 5.5, end point 50% inhibition", "result": 1.00},
      {"measurement": "Synergy Index", "setting": "[1]; Glut & AmBr, pH 8.0, end point 50% inhibition", "result": 1.00},
      {"measurement": "ppm Glut", "setting": "[1]; [3]", "result": 2.06, "unit": "ppm"},
      {"measurement": "ppm Glut", "setting": "[1]; [4]", "result": 6.68, "unit": "ppm"}
    ]},
    {"smiles": "CCCCCCCCCCCCNC(=N)N.Cl", "note": "[DGH, N-Dodecylguanidine hydrochloride]", "values": [
      {"measurement": "Synergy Index", "setting": "[1]; DGH & AmBr, pH 5.5, end point 50% inhibition", "result": 1.00},
      {"measurement": "Synergy Index", "setting": "[1]; DGH & AmBr, pH 8.0, end point 50% inhibition", "result": 1.00},
      {"measurement": "ppm DGH", "setting": "[1]; [3]", "result": 3.11, "unit": "ppm"},
      {"measurement": "ppm DGH", "setting": "[1]; [4]", "result": 1.84, "unit": "ppm"}
    ]},
    {"smiles": "O=c1ssc(Cl)c1Cl", "note": "[Dithiol, 4,5-Dichloro-1,2-dithiol-3-one]", "values": [
      {"measurement": "Synergy Index", "setting": "[1]; Dithiol & AmBr, pH 5.5, end point 50% inhibition", "result": 1.00},
      {"measurement": "Synergy Index", "setting": "[1]; Dithiol & AmBr, pH 8.0, end point 50% inhibition", "result": 1.00},
      {"measurement": "ppm Dithiol", "setting": "[1]; [3]", "result": 0.63, "unit": "ppm"},
      {"measurement": "ppm Dithiol", "setting": "[1]; [4]", "result": 0.84, "unit": "ppm"}
    ]},
    {"smiles": "O=S(=O)(C(Cl)(Cl)Cl)C(Cl)(Cl)Cl", "note": "[Sulfone, bis(trichloromethyl)sulfone]", "values": [
      {"measurement": "Synergy Index", "setting": "[1]; [5]", "result": 1.00},
      {"measurement": "Synergy Index", "setting": "[1]; [6]", "result": 1.00},
      {"measurement": "ppm Sulfone", "setting": "[1]; [7]", "result": 1.87, "unit": "ppm"},
      {"measurement": "ppm Sulfone", "setting": "[1]; [8]", "result": 8.42, "unit": "ppm"},
      {"measurement": "Synergy Index", "setting": "[2]; [5]", "result": 1.00},
      {"measurement": "Synergy Index", "setting": "[2]; [6]", "result": 1.00},
      {"measurement": "ppm Sulfone", "setting": "[2]; [7]", "result": 4.44, "unit": "ppm"},
      {"measurement": "ppm Sulfone", "setting": "[2]; [8]", "result": 10.25, "unit": "ppm"}
    ]},
    {"smiles": "N#CSCSC#N", "note": "[MBT, Methylene bisthiocyanate]", "values": [
      {"measurement": "Synergy Index", "setting": "[1]; MBT & AmBr, pH 5.5, end point 50% inhibition", "result": 1.00},
      {"measurement": "Synergy Index", "setting": "[1]; MBT & AmBr, pH 8.0, end point 50% inhibition", "result": 1.00},
      {"measurement": "ppm MBT", "setting": "[1]; [3]", "result": 0.36, "unit": "ppm"},
      {"measurement": "ppm MBT", "setting": "[1]; [4]", "result": 0.71, "unit": "ppm"},
      {"measurement": "Synergy Index", "setting": "[2]; MBT & AmBr, at 50% inhibition, pH 5.5", "result": 1.00},
      {"measurement": "Synergy Index", "setting": "[2]; MBTC & AmBr, at 50% inhibition, pH 8.0", "result": 1.00},
      {"measurement": "ppm MBT", "setting": "[2]; [7]", "result": 0.38, "unit": "ppm"},
      {"measurement": "ppm MBT", "setting": "[2]; [8]", "result": 0.73, "unit": "ppm"}
    ]},
    {"smiles": "N#CC(Br)(Br)C(N)=O", "note": "[DBNPA, 2,2-Dibromo-3-nitrilopropionamide]", "values": [
      {"measurement": "Synergy Index", "setting": "[1]; [9]", "result": 1.00},
      {"measurement": "Synergy Index", "setting": "[1]; [10]", "result": 1.00},
      {"measurement": "ppm DBNPA", "setting": "[1]; [3]", "result": 3.08, "unit": "ppm"},
      {"measurement": "ppm DBNPA", "setting": "[1]; [4]", "result": 2.86, "unit": "ppm"},
      {"measurement": "Synergy Index", "setting": "[2]; [9]", "result": 1.00},
      {"measurement": "Synergy Index", "setting": "[2]; [10]", "result": 1.00},
      {"measurement": "ppm DBNPA", "setting": "[2]; [3]", "result": 3.09, "unit": "ppm"},
      {"measurement": "ppm DBNPA", "setting": "[2]; [4]", "result": 2.33, "unit": "ppm"}
    ]}
  ]
}
